Measured values: ChEMBL document CHEMBL5608163, “Structure modification of anoplin for fighting resistant bacteria” (Eur J Med Chem, 2024)
Values after ≈ are worked out from the molar mass of the structure shown. Bridge positions count the residues as written; N and C are the ends. Peptide text beside a SMILES is read from it. I, II: the chains in the order shown. * marks the point of attachment. Decanoyl = CCCCCCCCCC(=O)*; Octanoyl = CCCCCCCC(=O)*; Hexanoyl = CCCCCC(=O)*; Butyryl = CCCC(=O)*

What was measured:
Erythrocyte = assay: Hemolytic activity in human erythrocyte incubated for 70 mins by absorbance based assay; assay type: toxicity, cell-based; details: 1.167 h
Escherichia coli = assay: Antibacterial activity against Escherichia coli ATCC 25922 assessed as reduction in bacterial cell growth incubated for 16 to 24 hrs by CLSI-protocol based Mueller-Hinton Broth micro-dilution method; assay type: functional; details: time 16-24 hrs
Klebsiella pneumoniae = assay: Antibacterial activity against Klebsiella pneumoniae ATCC 700603 assessed as reduction in bacterial cell growth incubated for 16 to 24 hrs by CLSI-protocol based Mueller-Hinton Broth micro-dilution method; assay type: functional; details: time 16-24 hrs
Pseudomonas aeruginosa = assay: Antibacterial activity against Pseudomonas aeruginosa ATCC 27853 assessed as reduction in bacterial cell growth incubated for 16 to 24 hrs by CLSI-protocol based Mueller-Hinton Broth micro-dilution method; assay type: functional; details: time 16-24 hrs
Bacillus subtilis = assay: Antibacterial activity against Bacillus subtilis ATCC 23857 assessed as reduction in bacterial cell growth incubated for 16 to 24 hrs by CLSI-protocol based Mueller-Hinton Broth micro-dilution method; assay type: functional; details: time 16-24 hrs
Staphylococcus aureus = assay: Antibacterial activity against Staphylococcus aureus ATCC 25923 assessed as reduction in bacterial cell growth incubated for 16 to 24 hrs by CLSI-protocol based Mueller-Hinton Broth micro-dilution method; assay type: functional; details: time 16-24 hrs

Structure (SMILES)	HC10 (Erythrocyte)	MIC (Escherichia coli)	MIC (Klebsiella pneumoniae)	MIC (Pseudomonas aeruginosa)	MIC (Bacillus subtilis)	MIC (Staphylococcus aureus)
CCCCCC(=O)NCC(=O)N[C@@H](CC(C)C)C(=O)N[C@@H](CC(C)C)C(=O)N[C@@H](CCCCN)C(=O)N[C@@H](CCCNC(=N)N)C(=O)N[C@H](C(=O)N[C@@H](CCCCN)C(=O)N[C@H](C(=O)N[C@@H](CC(C)C)C(=O)N[C@@H](CC(C)C)C(=O)NCCCC[C@H](NC(=O)[C@H](CCCCNC(=O)[C@H](CC(C)C)NC(=O)[C@H](CC(C)C)NC(=O)[C@@H](NC(=O)[C@H](CCCCN)NC(=O)[C@@H](NC(=O)[C@H](CCCNC(=N)N)NC(=O)[C@H](CCCCN)NC(=O)[C@H](CC(C)C)NC(=O)[C@H](CC(C)C)NC(=O)CNC(=O)CCCCC)[C@@H](C)CC)[C@@H](C)O)NC(=O)[C@H](CC(C)C)NC(=O)[C@H](CC(C)C)NC(=O)[C@@H](NC(=O)[C@H](CCCCN)NC(=O)[C@@H](NC(=O)[C@H](CCCNC(=N)N)NC(=O)[C@H](CCCCN)NC(=O)[C@H](CC(C)C)NC(=O)[C@H](CC(C)C)NC(=O)CNC(=O)CCCCC)[C@@H](C)CC)[C@@H](C)O)C(N)=O)[C@@H](C)O)[C@@H](C)CC (I: Hexanoyl-GLLKRIKTLLKK-NH2 / II: Hexanoyl-GLLKRIKTLL / III: Hexanoyl-GLLKRIKTLL; amide I:11-III:C, I:12-II:C) [listing 1 of 2 here]	0.71 µM					
CC[C@H](C)[C@H](NC(=O)[C@H](CCCNC(=N)N)NC(=O)[C@H](CCCCN)NC(=O)[C@H](CC(C)C)NC(=O)[C@H](CC(C)C)NC(=O)CN)C(=O)N[C@@H](CCCCN)C(=O)N[C@H](C(=O)N[C@@H](CC(C)C)C(=O)N[C@@H](CC(C)C)C(=O)NCCCC[C@H](NC(=O)[C@H](CCCCNC(=O)[C@H](CC(C)C)NC(=O)[C@H](CC(C)C)NC(=O)[C@@H](NC(=O)[C@H](CCCCN)NC(=O)[C@@H](NC(=O)[C@H](CCCNC(=N)N)NC(=O)[C@H](CCCCN)NC(=O)[C@H](CC(C)C)NC(=O)[C@H](CC(C)C)NC(=O)CN)[C@@H](C)CC)[C@@H](C)O)NC(=O)[C@H](CC(C)C)NC(=O)[C@H](CC(C)C)NC(=O)[C@@H](NC(=O)[C@H](CCCCN)NC(=O)[C@@H](NC(=O)[C@H](CCCNC(=N)N)NC(=O)[C@H](CCCCN)NC(=O)[C@H](CC(C)C)NC(=O)[C@H](CC(C)C)NC(=O)CN)[C@@H](C)CC)[C@@H](C)O)C(N)=O)[C@@H](C)O (I: H-GLLKRIKTLLKK-NH2 / II: H-GLLKRIKTLL / III: H-GLLKRIKTLL; amide I:11-III:C, I:12-II:C) [listing 1 of 2 here]		8 µM (≈ 29.5 µg/mL)	4 µM (≈ 14.7 µg/mL)	4 µM (≈ 14.7 µg/mL)	4 µM (≈ 14.7 µg/mL)	4 µM (≈ 14.7 µg/mL)
CC[C@H](C)[C@H](NC(=O)[C@H](CCCNC(=N)N)NC(=O)[C@H](CCCCN)NC(=O)[C@H](CC(C)C)NC(=O)[C@H](CC(C)C)NC(=O)CN)C(=O)N[C@@H](CCCCN)C(=O)N[C@H](C(=O)N[C@@H](CC(C)C)C(=O)N[C@@H](CC(C)C)C(=O)NCCCC[C@H](NC(=O)[C@H](CCCCNC(=O)[C@H](CC(C)C)NC(=O)[C@H](CC(C)C)NC(=O)[C@@H](NC(=O)[C@H](CCCCN)NC(=O)[C@@H](NC(=O)[C@H](CCCNC(=N)N)NC(=O)[C@H](CCCCN)NC(=O)[C@H](CC(C)C)NC(=O)[C@H](CC(C)C)NC(=O)CN)[C@@H](C)CC)[C@@H](C)O)NC(=O)[C@H](CC(C)C)NC(=O)[C@H](CC(C)C)NC(=O)[C@@H](NC(=O)[C@H](CCCCN)NC(=O)[C@@H](NC(=O)[C@H](CCCNC(=N)N)NC(=O)[C@H](CCCCN)NC(=O)[C@H](CC(C)C)NC(=O)[C@H](CC(C)C)NC(=O)CN)[C@@H](C)CC)[C@@H](C)O)C(N)=O)[C@@H](C)O (I: H-GLLKRIKTLLKK-NH2 / II: H-GLLKRIKTLL / III: H-GLLKRIKTLL; amide I:11-III:C, I:12-II:C) [listing 2 of 2 here]	2.53 µM					
CCCCCCCC(=O)NCC(=O)N[C@@H](CC(C)C)C(=O)N[C@@H](CC(C)C)C(=O)N[C@@H](CCCCN)C(=O)N[C@@H](CCCNC(=N)N)C(=O)N[C@H](C(=O)N[C@@H](CCCCN)C(=O)N[C@H](C(=O)N[C@@H](CC(C)C)C(=O)N[C@@H](CC(C)C)C(=O)NCCCC[C@H](NC(=O)[C@H](CCCCNC(=O)[C@H](CC(C)C)NC(=O)[C@H](CC(C)C)NC(=O)[C@@H](NC(=O)[C@H](CCCCN)NC(=O)[C@@H](NC(=O)[C@H](CCCNC(=N)N)NC(=O)[C@H](CCCCN)NC(=O)[C@H](CC(C)C)NC(=O)[C@H](CC(C)C)NC(=O)CNC(=O)CCCCCCC)[C@@H](C)CC)[C@@H](C)O)NC(=O)[C@H](CC(C)C)NC(=O)[C@H](CC(C)C)NC(=O)[C@@H](NC(=O)[C@H](CCCCN)NC(=O)[C@@H](NC(=O)[C@H](CCCNC(=N)N)NC(=O)[C@H](CCCCN)NC(=O)[C@H](CC(C)C)NC(=O)[C@H](CC(C)C)NC(=O)CNC(=O)CCCCCCC)[C@@H](C)CC)[C@@H](C)O)C(N)=O)[C@@H](C)O)[C@@H](C)CC (I: Octanoyl-GLLKRIKTLLKK-NH2 / II: Octanoyl-GLLKRIKTLL / III: Octanoyl-GLLKRIKTLL; amide I:11-III:C, I:12-II:C) [listing 1 of 2 here]	59.73 µM					
CCCCCC(=O)NCC(=O)N[C@@H](CC(C)C)C(=O)N[C@@H](CC(C)C)C(=O)N[C@@H](CCCCN)C(=O)N[C@@H](CCCNC(=N)N)C(=O)N[C@H](C(=O)N[C@@H](CCCCN)C(=O)N[C@H](C(=O)N[C@@H](CC(C)C)C(=O)N[C@@H](CC(C)C)C(=O)NCCCC[C@H](NC(=O)[C@H](CCCCNC(=O)[C@H](CC(C)C)NC(=O)[C@H](CC(C)C)NC(=O)[C@@H](NC(=O)[C@H](CCCCN)NC(=O)[C@@H](NC(=O)[C@H](CCCNC(=N)N)NC(=O)[C@H](CCCCN)NC(=O)[C@H](CC(C)C)NC(=O)[C@H](CC(C)C)NC(=O)CNC(=O)CCCCC)[C@@H](C)CC)[C@@H](C)O)NC(=O)[C@H](CC(C)C)NC(=O)[C@H](CC(C)C)NC(=O)[C@@H](NC(=O)[C@H](CCCCN)NC(=O)[C@@H](NC(=O)[C@H](CCCNC(=N)N)NC(=O)[C@H](CCCCN)NC(=O)[C@H](CC(C)C)NC(=O)[C@H](CC(C)C)NC(=O)CNC(=O)CCCCC)[C@@H](C)CC)[C@@H](C)O)C(N)=O)[C@@H](C)O)[C@@H](C)CC (I: Hexanoyl-GLLKRIKTLLKK-NH2 / II: Hexanoyl-GLLKRIKTLL / III: Hexanoyl-GLLKRIKTLL; amide I:11-III:C, I:12-II:C) [listing 2 of 2 here]		16 µM (≈ 63.6 µg/mL)	32 µM (≈ 127 µg/mL)	8 µM (≈ 31.8 µg/mL)	8 µM (≈ 31.8 µg/mL)	16 µM (≈ 63.6 µg/mL)
CCCCCCCC(=O)NCC(=O)N[C@@H](CC(C)C)C(=O)N[C@@H](CC(C)C)C(=O)N[C@@H](CCCCN)C(=O)N[C@@H](CCCNC(=N)N)C(=O)N[C@H](C(=O)N[C@@H](CCCCN)C(=O)N[C@H](C(=O)N[C@@H](CC(C)C)C(=O)N[C@@H](CC(C)C)C(=O)NCCCC[C@H](NC(=O)[C@H](CCCCNC(=O)[C@H](CC(C)C)NC(=O)[C@H](CC(C)C)NC(=O)[C@@H](NC(=O)[C@H](CCCCN)NC(=O)[C@@H](NC(=O)[C@H](CCCNC(=N)N)NC(=O)[C@H](CCCCN)NC(=O)[C@H](CC(C)C)NC(=O)[C@H](CC(C)C)NC(=O)CNC(=O)CCCCCCC)[C@@H](C)CC)[C@@H](C)O)NC(=O)[C@H](CC(C)C)NC(=O)[C@H](CC(C)C)NC(=O)[C@@H](NC(=O)[C@H](CCCCN)NC(=O)[C@@H](NC(=O)[C@H](CCCNC(=N)N)NC(=O)[C@H](CCCCN)NC(=O)[C@H](CC(C)C)NC(=O)[C@H](CC(C)C)NC(=O)CNC(=O)CCCCCCC)[C@@H](C)CC)[C@@H](C)O)C(N)=O)[C@@H](C)O)[C@@H](C)CC (I: Octanoyl-GLLKRIKTLLKK-NH2 / II: Octanoyl-GLLKRIKTLL / III: Octanoyl-GLLKRIKTLL; amide I:11-III:C, I:12-II:C) [listing 2 of 2 here]		32 µM (≈ 130 µg/mL)	128 µM (≈ 520 µg/mL)	32 µM (≈ 130 µg/mL)	32 µM (≈ 130 µg/mL)	32 µM (≈ 130 µg/mL)
CCCCCCCCCC(=O)NCC(=O)N[C@@H](CC(C)C)C(=O)N[C@@H](CC(C)C)C(=O)N[C@@H](CCCCN)C(=O)N[C@@H](CCCNC(=N)N)C(=O)N[C@H](C(=O)N[C@@H](CCCCN)C(=O)N[C@H](C(=O)N[C@@H](CC(C)C)C(=O)N[C@@H](CC(C)C)C(=O)NCCCC[C@H](NC(=O)[C@H](CCCCNC(=O)[C@H](CC(C)C)NC(=O)[C@H](CC(C)C)NC(=O)[C@@H](NC(=O)[C@H](CCCCN)NC(=O)[C@@H](NC(=O)[C@H](CCCNC(=N)N)NC(=O)[C@H](CCCCN)NC(=O)[C@H](CC(C)C)NC(=O)[C@H](CC(C)C)NC(=O)CNC(=O)CCCCCCCCC)[C@@H](C)CC)[C@@H](C)O)NC(=O)[C@H](CC(C)C)NC(=O)[C@H](CC(C)C)NC(=O)[C@@H](NC(=O)[C@H](CCCCN)NC(=O)[C@@H](NC(=O)[C@H](CCCNC(=N)N)NC(=O)[C@H](CCCCN)NC(=O)[C@H](CC(C)C)NC(=O)[C@H](CC(C)C)NC(=O)CNC(=O)CCCCCCCCC)[C@@H](C)CC)[C@@H](C)O)C(N)=O)[C@@H](C)O)[C@@H](C)CC (I: Decanoyl-GLLKRIKTLLKK-NH2 / II: Decanoyl-GLLKRIKTLL / III: Decanoyl-GLLKRIKTLL; amide I:11-III:C, I:12-II:C)		128 µM (≈ 531 µg/mL)	32 µM (≈ 133 µg/mL)	32 µM (≈ 133 µg/mL)	56 µM (≈ 232 µg/mL)	128 µM (≈ 531 µg/mL)
CCCC(=O)NCC(=O)N[C@@H](CC(C)C)C(=O)N[C@@H](CC(C)C)C(=O)N[C@@H](CCCCN)C(=O)N[C@@H](CCCNC(=N)N)C(=O)N[C@H](C(=O)N[C@@H](CCCCN)C(=O)N[C@H](C(=O)N[C@@H](CC(C)C)C(=O)N[C@@H](CC(C)C)C(=O)NCCCC[C@H](NC(=O)[C@H](CCCCNC(=O)[C@H](CC(C)C)NC(=O)[C@H](CC(C)C)NC(=O)[C@@H](NC(=O)[C@H](CCCCN)NC(=O)[C@@H](NC(=O)[C@H](CCCNC(=N)N)NC(=O)[C@H](CCCCN)NC(=O)[C@H](CC(C)C)NC(=O)[C@H](CC(C)C)NC(=O)CNC(=O)CCC)[C@@H](C)CC)[C@@H](C)O)NC(=O)[C@H](CC(C)C)NC(=O)[C@H](CC(C)C)NC(=O)[C@@H](NC(=O)[C@H](CCCCN)NC(=O)[C@@H](NC(=O)[C@H](CCCNC(=N)N)NC(=O)[C@H](CCCCN)NC(=O)[C@H](CC(C)C)NC(=O)[C@H](CC(C)C)NC(=O)CNC(=O)CCC)[C@@H](C)CC)[C@@H](C)O)C(N)=O)[C@@H](C)O)[C@@H](C)CC (I: Butyryl-GLLKRIKTLLKK-NH2 / II: Butyryl-GLLKRIKTLL / III: Butyryl-GLLKRIKTLL; amide I:11-III:C, I:12-II:C)		4 µM (≈ 15.6 µg/mL)	4 µM (≈ 15.6 µg/mL)	2 µM (≈ 7.79 µg/mL)	4 µM (≈ 15.6 µg/mL)	4 µM (≈ 15.6 µg/mL)
